Biological target: T1, human RORγt (Homo sapiens, UniProt P51449)
T1 construct: expressed in transfected cells; host or cells: human CD4+ T cells (cord blood or adult blood), lentiviral HDV-IRES-GFP/HSA vectors
T1 sequence (P51449 1-497 isoform P51449-2): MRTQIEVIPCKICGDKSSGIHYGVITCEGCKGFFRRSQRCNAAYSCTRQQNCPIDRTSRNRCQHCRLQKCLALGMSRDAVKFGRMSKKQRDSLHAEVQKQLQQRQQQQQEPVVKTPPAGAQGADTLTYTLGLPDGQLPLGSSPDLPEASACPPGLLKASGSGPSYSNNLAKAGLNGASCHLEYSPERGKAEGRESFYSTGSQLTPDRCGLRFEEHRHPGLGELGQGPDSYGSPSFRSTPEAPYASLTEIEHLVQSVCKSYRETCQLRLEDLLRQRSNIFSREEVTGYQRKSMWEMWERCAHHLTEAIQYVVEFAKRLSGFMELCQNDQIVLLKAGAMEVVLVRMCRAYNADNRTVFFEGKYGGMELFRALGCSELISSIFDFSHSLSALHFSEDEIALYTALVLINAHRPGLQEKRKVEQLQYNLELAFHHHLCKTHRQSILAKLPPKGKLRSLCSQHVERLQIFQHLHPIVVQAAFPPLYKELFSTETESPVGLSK
Assay: IL-17a induction in human CD4+ T cells transduced with RORαd, RORβ or RORγt
Assay type: cell-based
Experimental: GFP expressing cells were gated for analysis. DMSO, Dig(dhd) (40 μM) or Dig(sal) (10 μM) was added 6-8 h after viral transduction. c, Flow cytometry of the production of IL-17a and IFN-γ by human naive cord blood T cells cultured for six days in the presence of IL-2, IL-23, and IL-1β, with various concentrations of TGF-β. DMSO, Dig(dhd), or Dig(sal) at indicated concentrations (μM) was added 16 h after cytokine addition.
Blood samples were obtained from the New York Blood Center. Mononuclear cells were prepared from buffy coats from healthy adult donors or from cord blood, using FicollPAQUE gradients. CD4^+ T cells were magnetically selected (autoMACS, Miltenyi). Adult memory CD4^+ T cell subsets were further purified as CD3^+CD4^+CD25^− CD45RO^+CCR6^+CD161^+ by cell sorting on a FACSAria (BD). Naive CD4^+ T cells were isolated from cord blood as CD3^+CD4^+CD45RA^+HLA-DR^−CD25^−DAPI^−. Memory cells were activated with anti-CD3/CD28 coated beads (1 bead/cell) in T cell media (see above) supplemented with 100 U/mL IL-2 (Peprotech), 10 ng/mL IL-1b and 10 ng/mL IL-23 (eBioscience). Naive cells were activated with anti-CD3/CD28 beads and cultured with the same cytokines, and TGF-b (0, 0.1, 1, or, 10 ng/mL) (Peprotech), in XVIVO-20 (Lonza) media. […] Naive CD4^+ T cells, cultured in XVIVO-20 media supplemented 100 U/mL IL-2 (Peprotech), were transduced with RORad-IRES-GFP or RORγt-IRES-GFP on day 1 and analyzed on day 6. GFP expressing cells were gated for analysis. DMSO or compounds were added 6-8 hours after the viral transduction.
Blood samples were obtained from the New York Blood Center. Mononuclear cells were prepared from buffy coats from healthy adult donors or from cord blood, using FicollPAQUE gradients. CD4^+ T cells were magnetically selected (autoMACS, Miltenyi). Adult memory CD4+ T cell subsets were further purified as CD3^+CD4^+CD25^−CD45RO^+CCR6^+CD161^+ by cell sorting on a FACSAria (BD). […] Naive CD4+ T cells, cultured in XVIVO-20 media supplemented with 100 U/mL IL-2 (Peprotech), were transduced with RORαd-IRES-GFP or RORγt-IRES-GFP on day 1 and analyzed on day 6. […]

SMILES	RORγt-mediated IL-17a induction (versus RORαd) (40 μM, FIG. 3b)	RORαd-, β- or γt-mediated induction of IL-17a (human T cells expressing murine Na+/K+-ATPase)
CC1O[C@@H](OC2C(C)O[C@H](OC3C(C)O[C@@H](O[C@H]4CC[C@@]5(C)[C@H](CC[C@@H]6[C@@H]5C[C@@H](O)[C@]5(C)[C@@H](C(CO)CCO)CC[C@]65O)C4)C[C@H]3O)C[C@H]2O)C[C@@H](O)C1O (some centres unmarked) [Compound 13, 20,22-Dihydrodigoxin-21,23-diol]	selectively suppressed	
C[C@H]1O[C@@H](O[C@H]2[C@@H](O)C[C@H](O[C@H]3[C@@H](O)C[C@H](O[C@H]4CC[C@@]5(C)[C@H](CC[C@@H]6[C@@H]5C[C@@H](O)[C@]5(C)[C@@H](C7=CC(=O)OC7)CC[C@]65O)C4)O[C@@H]3C)O[C@@H]2C)C[C@H](O)[C@@H]1O [Digoxin]		inhibited only RORγt-mediated induction of IL-17a

— patent US9505798B2, “Steroid compounds as RORyt modulators and uses thereof” (New York University, priority 2010, dated 2016)
